From patent publication US12065443B2, “Compounds and pharmaceutical compositions thereof for the treatment of diseases” (priority 2017, dated 2024)

How the values were obtained:
Assay in all cases: biochemical
[1] = target: T1, SIK1 (Homo sapiens, UniProt P57059); conditions: 33P radioactive SIK kinase assay, AMARA peptide, 10 μM ATP; read-out: SIK1 IC50
T1 construct: purchased Carna Biosciences 02-131
Method: (§1) The principle of the ^33P radioactive kinase assay consists in measuring the incorporated ^33P into the substrate AMARA peptide when phosphorylated by SIK1, SIK2 or SIK3 using [^33P]-g-ATP, which correlates with kinase activity.
(§2) 1% DMSO and 10 μM staurosporine final concentrations are used as negative and positive controls.
(§3) 11 μL of enzyme-substrate mixture is added on the assay plates. The reactions are started by adding 9 μL ATP mixture, consisting of non-labeled and ^33P-labeled ATP, on the assay plates.
(§4) The reactions are stopped by adding 25 μL phosphoric acid (150 mM) to the reactions.
(§5) After harvesting the kinase reactions, the filter plates are washed 6 times with phosphoric acid (75 mM). […] The top of the plates are sealed with TopSeal-A. Read-out is performed with a TopCount instrument (PerkinElmer Inc.).

[2] = target: T2, SIK2 (Homo sapiens, UniProt Q9H0K1); conditions: 33P radioactive SIK kinase assay, AMARA peptide, 10 μM ATP
T2 construct: purchased ThermoFisher Scientific PV4792
Method: as §1, §2, §3, §4, §5

[3] = target: T3, SIK3 (Homo sapiens, UniProt Q9Y2K2)
T3 construct: purchased SignalChem S12-11G-100
Method: as §1, §2, §3, §4, §5

T3 sequence (Q9Y2K2 whole entry): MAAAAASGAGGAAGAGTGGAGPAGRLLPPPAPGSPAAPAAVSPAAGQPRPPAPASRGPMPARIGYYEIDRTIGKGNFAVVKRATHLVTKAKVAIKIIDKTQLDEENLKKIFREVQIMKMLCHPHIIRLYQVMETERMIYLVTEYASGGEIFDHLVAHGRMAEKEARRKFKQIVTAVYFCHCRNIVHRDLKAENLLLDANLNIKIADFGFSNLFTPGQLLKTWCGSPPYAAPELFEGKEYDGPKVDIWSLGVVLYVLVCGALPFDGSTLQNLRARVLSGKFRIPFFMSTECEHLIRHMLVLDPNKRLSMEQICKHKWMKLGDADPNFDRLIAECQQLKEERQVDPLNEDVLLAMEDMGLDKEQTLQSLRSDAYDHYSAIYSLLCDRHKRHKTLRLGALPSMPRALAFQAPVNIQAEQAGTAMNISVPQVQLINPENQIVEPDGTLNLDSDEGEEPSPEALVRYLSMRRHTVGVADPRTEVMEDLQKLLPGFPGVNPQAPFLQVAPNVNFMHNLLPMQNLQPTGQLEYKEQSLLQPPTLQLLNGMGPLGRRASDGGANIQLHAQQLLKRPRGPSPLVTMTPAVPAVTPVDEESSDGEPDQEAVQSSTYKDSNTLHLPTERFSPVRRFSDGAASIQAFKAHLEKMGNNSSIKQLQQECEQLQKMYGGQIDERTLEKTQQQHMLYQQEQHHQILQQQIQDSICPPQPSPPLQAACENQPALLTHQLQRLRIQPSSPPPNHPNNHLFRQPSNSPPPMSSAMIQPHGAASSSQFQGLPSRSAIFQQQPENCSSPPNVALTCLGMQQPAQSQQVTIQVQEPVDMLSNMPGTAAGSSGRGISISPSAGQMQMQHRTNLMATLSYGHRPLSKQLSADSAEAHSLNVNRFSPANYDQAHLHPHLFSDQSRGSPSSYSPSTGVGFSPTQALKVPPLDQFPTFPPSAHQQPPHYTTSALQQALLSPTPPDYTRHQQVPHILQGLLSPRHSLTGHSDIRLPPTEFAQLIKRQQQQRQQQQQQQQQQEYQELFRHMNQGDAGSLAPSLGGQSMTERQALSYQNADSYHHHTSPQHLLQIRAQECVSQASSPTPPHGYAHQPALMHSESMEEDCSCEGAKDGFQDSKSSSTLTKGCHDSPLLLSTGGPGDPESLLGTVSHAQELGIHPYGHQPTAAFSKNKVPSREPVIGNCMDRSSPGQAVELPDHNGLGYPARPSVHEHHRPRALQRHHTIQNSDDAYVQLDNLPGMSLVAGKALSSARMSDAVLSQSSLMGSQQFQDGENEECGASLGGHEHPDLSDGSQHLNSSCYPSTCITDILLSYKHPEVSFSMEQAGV
T1 sequence (P57059 whole entry): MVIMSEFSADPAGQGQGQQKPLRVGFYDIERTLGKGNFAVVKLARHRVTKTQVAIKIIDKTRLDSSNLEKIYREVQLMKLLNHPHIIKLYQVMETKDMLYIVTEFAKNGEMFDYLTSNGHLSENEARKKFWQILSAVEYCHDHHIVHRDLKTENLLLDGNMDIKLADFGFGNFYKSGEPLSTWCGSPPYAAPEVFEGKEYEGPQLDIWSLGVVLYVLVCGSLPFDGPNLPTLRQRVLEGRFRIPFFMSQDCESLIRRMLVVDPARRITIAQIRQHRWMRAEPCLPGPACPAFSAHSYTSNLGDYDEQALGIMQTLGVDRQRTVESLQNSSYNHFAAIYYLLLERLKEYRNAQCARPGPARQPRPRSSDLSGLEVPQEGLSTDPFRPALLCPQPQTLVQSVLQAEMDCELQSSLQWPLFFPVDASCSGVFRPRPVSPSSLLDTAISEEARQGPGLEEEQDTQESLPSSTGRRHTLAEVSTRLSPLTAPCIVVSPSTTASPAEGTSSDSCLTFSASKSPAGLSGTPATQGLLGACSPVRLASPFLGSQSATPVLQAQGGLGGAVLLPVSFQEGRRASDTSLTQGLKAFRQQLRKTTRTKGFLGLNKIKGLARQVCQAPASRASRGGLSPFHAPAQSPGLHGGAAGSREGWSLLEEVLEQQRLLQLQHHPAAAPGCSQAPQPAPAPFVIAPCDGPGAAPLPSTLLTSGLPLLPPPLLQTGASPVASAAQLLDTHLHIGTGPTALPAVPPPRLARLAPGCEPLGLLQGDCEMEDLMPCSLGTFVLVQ
T2 sequence (Q9H0K1 whole entry): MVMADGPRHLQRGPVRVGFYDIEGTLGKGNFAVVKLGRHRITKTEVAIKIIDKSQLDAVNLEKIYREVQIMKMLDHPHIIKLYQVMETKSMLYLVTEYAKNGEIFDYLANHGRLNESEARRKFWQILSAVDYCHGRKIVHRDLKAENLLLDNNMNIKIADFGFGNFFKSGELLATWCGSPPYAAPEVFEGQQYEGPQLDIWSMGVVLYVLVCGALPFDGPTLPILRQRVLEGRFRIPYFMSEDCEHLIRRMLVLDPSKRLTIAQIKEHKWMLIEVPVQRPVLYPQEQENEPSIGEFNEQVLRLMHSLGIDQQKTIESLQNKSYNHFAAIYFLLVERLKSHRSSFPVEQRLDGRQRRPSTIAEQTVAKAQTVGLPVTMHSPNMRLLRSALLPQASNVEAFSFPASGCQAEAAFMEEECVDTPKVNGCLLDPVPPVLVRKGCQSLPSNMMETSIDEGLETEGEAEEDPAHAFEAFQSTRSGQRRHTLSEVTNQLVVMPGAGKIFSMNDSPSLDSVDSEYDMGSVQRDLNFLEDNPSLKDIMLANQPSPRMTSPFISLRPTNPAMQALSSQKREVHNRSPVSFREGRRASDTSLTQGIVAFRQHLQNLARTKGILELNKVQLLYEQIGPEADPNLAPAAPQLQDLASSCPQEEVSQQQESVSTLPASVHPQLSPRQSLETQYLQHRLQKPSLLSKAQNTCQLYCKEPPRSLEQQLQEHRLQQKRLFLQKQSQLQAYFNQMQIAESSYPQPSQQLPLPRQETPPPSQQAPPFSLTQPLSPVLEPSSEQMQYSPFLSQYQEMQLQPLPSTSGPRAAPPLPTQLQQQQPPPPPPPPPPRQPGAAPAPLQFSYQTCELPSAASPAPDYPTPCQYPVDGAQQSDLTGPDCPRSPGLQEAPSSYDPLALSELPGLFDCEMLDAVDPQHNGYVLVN

Row | IC50 [1] [nM] | IC50 [2] [nM] | IC50 [3] [nM] | Structure (SMILES)
1 | 10 to 100 | 10 to 100 | 100 to 500 | COCCCNC(=O)c1c(OC)cc(-n2cnc3cc(-c4cnn(C)c4)ccc32)cc1OC [compound 60]
2 | 10 to 100 | 10 to 100 | 10 to 100 | COc1cc(-n2cnc3cc(-c4cnn(C)c4)ccc32)cc(OC)c1C(=O)NCC(C)C [compound 113, N-isobutyl-2,6-dimethoxy-4-[5-(1-methylpyrazol-4-yl)benzimidazol-1-yl]benzamide]
3 | > 500 | 100 to 500 | 10 to 100 | COc1cc(-n2cnc3cc(-c4cnnc(C)c4)ccc32)cc(OC)c1C(=O)NCC(F)(F)F [compound 121, 2,6-dimethoxy-4-[5-(6-methylpyridazin-4-yl)benzimidazol-1-yl]-N-(2,2,2-trifluoroethyl)benzamide]
4 | 100 to 500 | 10 to 100 | 100 to 500 | COc1cc(-n2cnc3cc(-c4cnn(C)c4)ccc32)cc(OC)c1C(=O)NCc1nccn1C [compound 71, 2,6-dimethoxy-N-[(1-methylimidazol-2-yl)methyl]-4-[5-(1-methylpyrazol-4-yl)benzimidazol-1-yl]benzamide]
5 | 100 to 500 | 10 to 100 | 10 to 100 | COc1cc(-n2cnc3cc(-c4ccnnc4)ccc32)cc(OC)c1C(=O)NCC(F)(F)F [compound 93, 2,6-dimethoxy-4-(5-pyridazin-4-ylbenzimidazol-1-yl)-N-(2,2,2-trifluoroethyl)benzamide]
6 | > 500 | 100 to 500 | 100 to 500 | COCCN(C)C(=O)c1c(OC)cc(-c2cnc3cc(-c4cnn(C)c4)ccn23)cc1OC [compound 131, 2,6-dimethoxy-N-(2-methoxyethyl)-N-methyl-4-[7-(1-methylpyrazol-4-yl)imidazo[1,2-a]pyridin-3-yl]benzamide]
7 | 100 to 500 | 100 to 500 | 100 to 500 | COc1cc(-c2cnc3cc(-c4cc(C)no4)ccn23)cc(OC)c1C(=O)N[C@@H](C)C(F)(F)F [compound 224, 2,6-dimethoxy-4-[7-(3-methylisoxazol-5-yl)imidazo[1,2-a]pyridin-3-yl]-N-[(1S)-2,2,2-trifluoro-1-methyl-ethyl]benzamide]
8 | 100 to 500 | 100 to 500 | 100 to 500 | COc1cc(-n2cnc3cc(-c4cnn(C)c4)ccc32)cc(OC)c1C(=O)N1CC(O)C1 [compound 184, [2,6-dimethoxy-4-[5-(1-methylpyrazol-4-yl)benzimidazol-1-yl]phenyl]-(3-hydroxyazetidin-1-yl)methanone]
9 | 100 to 500 | 10 to 100 | 10 to 100 | COc1cc(-c2ccc3c(c2)ncn3-c2cc(OC)c(C(=O)NCC(F)(F)F)c(OC)c2)ccn1 [compound 106, 2,6-dimethoxy-4-[5-(2-methoxy-4-pyridyl)benzimidazol-1-yl]-N-(2,2,2-trifluoroethyl)benzamide]
10 | 100 to 500 | 10 to 100 | 100 to 500 | COc1cc(-n2cnc3cc(-c4cnn(C)c4)ccc32)cc(OC)c1C(=O)Nc1cnc(C)cn1 [Cpd 70, 2,6-dimcthoxy-N-(5-methylpyrazin-2-yl)-4-[5-(1-methylpyrazol-4-yl)benzimidazol-1-yl]benzamide]
11 | > 500 | 10 to 100 | 100 to 500 | COc1cc(-n2cnc3cc(-c4nccn4C)ccc32)cc(OC)c1C(=O)NCC(F)(F)F [compound 134, 2,6-dimethoxy-4-[5-(1-methylimidazol-2-yl)benzimidazol-1-yl]-N-(2,2,2-trifluoroethyl)benzamide]
12 | 100 to 500 | 100 to 500 | 100 to 500 | COc1cc(-n2cnc3cc(-c4cnn(C)c4)ccc32)cc(OC)c1C(=O)NC1CCS(=O)(=O)C1 (stereo not drawn) [compound 66, N-(1,1-dioxothiolan-3-yl)-2,6-dimethoxy-4-[5-(1-methylpyrazol-4-yl)benzimidazol-1-yl]benzamide]
